Patent publication US7879835B2 (Korea Research Institute of Chemical Technology, priority 2004, dated 2011)

How the values were obtained:
[1] = system: osteoclasts; test: Inhibitory effect on resorption activity of osteoclast (resorption pit area on calcium phosphate-coated plate); assay type: cell-based, mice; conditions: compared to control
Experimental: After finishing culture, the plate was washed with distilled water, and 50 μl/well of 5% sodium hypochlorite was added to the plate. The plate was let alone for 5 min, washed again with distilled water to remove the adherent cells, and dried at room temperature. Then, the area of formed resorption pits was calculated by means of Image Pro Plus software (Media Cybernetics Ver. 3.0).

[2] = system: MG-63 cells; test: Cytotoxicity test against osteoblast (MTT); assay type: cell-based, human
Method in brief: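 MG-63 human osteosarcoma cells exposed to 0.1, 0.3, 1.0 and 3.0 μM compound in DMEM with 10% FBS. Osteoclast progenitors in the same text were run at 2, 4 and 8 μM, 48 h, α-MEM + 20 ng/ml M-CSF, 37 °C; MTT added 3 h before end, A550 as % of control.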

[3] = system: female mice with osteoporosis induced by ovariectomy; test: Bone mineral density (BMD) of ovariectomized multiparous mice; assay type: in vivo; conditions: for decrease of BMD: after 8 weeks
Experimental: The effect of Compound Nos. 274 and 388 of the present invention on BMD of female mice with osteoporosis induced by ovariectomy was examined as follows.
Specifically, after anesthetizing female mice used as a control by abdominal administration with a mixture of 10 mg/kg body weight of Ketamin HCl (Ketara) and 0.15 ml/kg body weight of 2% Xylazine HCl (Roupun), the lumbar dorsum of each mouse was shaved bilaterally and the exposed skin was prepared for aseptic surgery by a 10% povidone-iodine scrub followed by a 70% alcohol wipe. A 1-cm incision was made in the central region of the abdomen, and the ovaries were identified with caution not to damage the main organs such as the liver and diaphragm. The ovaries were ligated with a suture thread, and then severed. Thereafter, each organ was relocated to its original position, and the incision was closed with a suture thread in an interrupted pattern. After ovariectomy, the mice were injected with 0.088 mg/kg body weight of gentamicin to prevent infection.
To investigate the change in BMD of the mice, bone mineral density was measured before the ovariectomy and every two weeks for 8 weeks after the ovariectomy using a bone mineral densitometer, XCT 540 Research SA (Stratec, Germany). Specifically, BMD measurement was made at a voxel size of 0.1 mm×0.1 mm, threshold values of 280 mg/cm^2 for cancellous bone and 500 mg/cm^2 for compact bone, and the analysis sites at the proximal tibias were determined by Scout scans (10 mm/sec). BMD was measured at three slices at the determined sites by CT scans (7 mm/sec), and the measurement was performed twice or more at the same site.
Multiparous mice each weighing […] were subjected to ovariectomy in accordance with the method of (3-1). From the 2nd day to 12th week after the ovariectomy, the mice were injected subcutaneously once a day with 0.5 and 1 mg/kg body weight/day of Compound Nos. 274 and 388, respectively. Alternatively, the mice were administered orally with 2.5 and 7.5 mg/kg body weight/day of Compound Nos. 274 and 388. BMD was measured before the ovariectomy, and during the period of the 2nd week to 11th week after the ovariectomy.

[4] = In vitro pharmacokinetics: metabolic stability in liver microsome; assay type: in vitro ADME; conditions: human liver microsome 1 mg/ml, 20 μM compound; for half-life at 20 µM: liver microsomes
Experimental: Metabolic stabilities of the compounds of the Examples were examined by employing microsome samples prepared from the human liver.
Each 20 μM of the compounds were reacted with 1 mg/ml of liver microsome and the half-lives and one-hour stabilities of the compounds were determined.

SMILES: CO/C=C(/C(=O)OC)c1ccc(Cl)cc1COc1ccc(OCCOC)cc1 [Compound No. 274, (E)-methyl-2-(2-((4-(2-methoxyethoxy)phenoxy)methyl)-4-chlorophenyl)-3-methoxyacrylate]
- Reduction (%) of the resorption pit area of osteoclasts ([1]; 0.3 uM): 100%
- Reduction (%) of the resorption pit area of osteoclasts ([1]; 1 uM): 100%
- Reduction (%) of the resorption pit area of osteoclasts ([1]; 3 uM): 100%
- relative absorbance relative to that of the control (set as 100), MTT ([2]; 0.11 uM): 113
- relative absorbance relative to that of the control (set as 100), MTT ([2]; 0.33 uM): 108
- relative absorbance relative to that of the control (set as 100), MTT ([2]; 1 uM): 106
- relative absorbance relative to that of the control (set as 100), MTT ([2]; 3 uM): 94
- increase of BMD ([3]; oral administration (2.5 and 7.5 mg/kg body weight/day), FIGS. 1a and 1b): 0.8%
- change of BMD ([3]; subcutaneous injection once a day (0.5 and 1 mg/kg body weight/day), FIGS. 1a and 1b): no decrease of BMD
- One-hour stability [4]: 72%
- half-life at 20 µM [4]: > 180 min

SMILES: CO/C=C(/C(=O)OC)c1ccccc1COc1cccc(N2CCCCC2)c1 [Compound No. 388, (E)-methyl-2-[2-((3-(piperidin-1-yl)phenoxy)methyl)phenyl]-3-methoxyacrylate]
- relative absorbance (MTT) relative to control (set as 100) ([2]; 0.33 μM compound): 105
- relative absorbance (MTT) relative to control (set as 100) ([2]; 1 μM compound): 84
- relative absorbance (MTT) relative to control (set as 100) ([2]; 3 μM compound): 81
- decrease of BMD ([3]; oral administration 2.5 mg/kg): 10.6%
- decrease of BMD ([3]; oral administration 7.5 mg/kg): 10.2%
- decrease of BMD ([3]; subcutaneous injection 0.5 mg/kg): 5.0%
- decrease of BMD ([3]; subcutaneous injection 1 mg/kg): 6.7%
- half-life at 20 µM [4]: 30.7 min
